Where “and” joins values, the source holds several entries; their conditions need not be identical. Equal values may be shown once.
How the values were obtained:
THP-1 (ATCC TIB-202) = experiment: Cytotoxicity assay (Resazurin); assay type: cell-based; details: Homo sapiens, THP-1, 48 h, 2 days
Method: (§1) Human cell lines were grown in their respective growth medium. Cells have been counted using a haemocytometer, and cell density was adjusted to 10^6 cells/mL. A 2-fold serial dilution was prepared in 96-well U-bottom plates, and cells were sown into the wells to a final density of […]. After 2 days at 37 °C and 5% CO2, 10 μL of a 100 μg/mL Resazurin dye solution was added to each well and was incubated for several hours. The reaction was inactivated with 100 μL of a 10% formalin solution per well. Finally, the fluorescence was quantified in a plate reader with 535-nm excision and 590-nm emission wavelengths.

HepG2 (CLS 300198) = experiment: Cytotoxicity assay (Resazurin); assay type: cell-based; details: Homo sapiens, HepG2, 48 h, 2 days
Method: as §1

HuH7 (CLS 300156) = experiment: Cytotoxicity assay (Resazurin); assay type: cell-based; details: Homo sapiens, Huh-7, 48 h, 2 days
Method: as §1

HEK293 (CLS 300192) = experiment: Cytotoxicity assay (Resazurin); assay type: cell-based; details: Homo sapiens, HEK293, 48 h, 2 days
Method: as §1

CLS-54 (CLS 300227) = experiment: Cytotoxicity assay (Resazurin); assay type: cell-based; details: Homo sapiens, 48 h, 2 days
Method: as §1

MRC-5 (ATCC CCL-171) = experiment: Cytotoxicity assay (Resazurin); assay type: cell-based; details: Homo sapiens, MRC5, 48 h, 2 days
Method: as §1

[1] = system: S. aureus mutant M5 (parental strain Mu50); experiment: MIC of spontaneously resistant mutant; assay type: cell-based; details: Staphylococcus aureus
Method: (§2) The minimal inhibitory concentration (MIC) has been determined according to the CSLI guidelines (CLSI [2012]). Briefly, in a sterile polystyrene U-bottom 96-well plate, a 2-fold serial dilution ranging from 100 to 0.78 μM of testing compounds has been prepared in 50 μL MHB. A freshly inoculated S. aureus culture was grown until OD600 nm of approx. 0.6 and diluted to 10^6 CFU/mL in MHB. Finally, 50 μL of the latter cell suspension was added to each well and then incubated statically for 18–24 h at 37 °C. MIC was determined using BacTiterGlo ATP assay (Promega, Madison, WI, USA) and Tecan Infinite F200 Pro (Tecan, Männedorf, Switzerland). Moxifloxacin and DMSO were used as positive and negative control, respectively. Sublethal concentrations of colistin (0.1 μM) were used in some experiments to increase the permeability of the gram-negative cell envelope for compound testing. For E. cloacae, a broth microdilution assay was performed using a serial 2-fold dilution in 96-well flat-bottomed plates (Falcon, BD Bioscience, Heidelberg) of both PPs in broth LB medium (Roth, Karlsruhe) at a concentration range of 50–0.024 μM.
(§3) Spontaneous resistant mutants have been generated with 2-bromo-PP and 3-bromo-PP to further investigate the mechanism of antibacterial action and resistance. Since isolation of spontaneous resistant mutants in one step was not successful on solid media containing 2-bromo-PP or 3-bromo-PP (i.e. resistance frequency < 10^−7 at 5-fold MIC), enrichment was done by passaging bacteria daily in liquid media containing increasing sublethal concentrations of PPs. […] Moreover, we observed cross-resistance between PPs since 2-bromo-PP-resistant mutants were also resistant against 3-bromo-PP and vice versa (Fig. 4a; Table 2).

[2] = system: S. aureus mutant M2 (parental strain ATCC 25923); experiment: MIC of spontaneously resistant mutant; assay type: cell-based; details: Staphylococcus aureus, ATCC25923
Method: as §2, §3

[3] = system: S. aureus mutant M3 (parental strain ATCC 25923); experiment: MIC of spontaneously resistant mutant; assay type: cell-based; details: Staphylococcus aureus, ATCC25923
Method: as §2, §3

[4] = system: S. aureus mutant M6 (parental strain Mu50); experiment: MIC of spontaneously resistant mutant; assay type: cell-based; details: Staphylococcus aureus
Method: as §2, §3

[5] = system: preformed biofilms of MRSA Mu50; experiment: Antibiofilm activity assay, viability by Resazurin reduction; assay type: cell-based, Staphylococcus aureus; details: preformed 24 h biofilms
Method: Sterile flat-bottom 96-well polystyrene plates were used for the assay. Some S. aureus colonies were picked from an MHA plate and resuspend in MHB + 10% glucose, and cell density was adjusted to 10^8 cells per mL. One hundred microlitres of cell suspension was added to each well, and the plate was incubated statically for 24 h to induce growth and maturation of biofilms. After 24 h, the wells were washed three times with PBS to remove planktonic cells, and compounds were added to the wells to check for antibiofilm activity. To check for inhibition of biofilm formation, compounds were added immediately after adding of cells to the wells in sublethal concentrations. Lysostaphin, moxifloxacin and DMSO served as positive and negative controls, respectively.
Viability was measured as described above utilizing the Resazurin reduction assay. Biofilm formation was measured using crystal violet staining as described elsewhere (Christensen et al. [1985]; Stepanovic et al. [2007]). Briefly, biofilms were washed three times with PBS and allowed to air dry before 0.1% (v/v) crystal violet solution (Waldeck GmbH & Co., Münster, Germany) was added to each well. The biofilms were stained for 15 min at room temperature (RT). […] Finally, 100 μL was transferred to a fresh 96-well plate to measure absorption at 600 nm with a plate reader.

S. aureus USA300 = experiment: MIC determination (microbroth dilution); assay type: cell-based; details: Staphylococcus aureus
Method: (§4) Cultures were, if not stated differently, incubated at 37 °C with aeration and shaking (150 rpm) in Mueller-Hinton broth (MHB). Bacteria were freshly incubated at the next morning from an overnight pre-culture for actively growing bacteria to an OD600 nm of approx. 0.6. To ensure persistent growth form, the bacteria were grown overnight until a density at OD600 nm > 5.0 was obtained. For biofilm growth, some colonies from a Mueller-Hinton agar (MHA) plate were picked and resuspended in MHB. Cell density has been adjusted to OD600 nm = 0.8, and cells were sown into a flat-bottom 96-well plate to be incubated statically at 37 °C with aeration. Studies were mainly performed with S. aureus Mu50.
as §2

S. aureus TCH1516 = experiment: MIC determination (microbroth dilution); assay type: cell-based; details: Staphylococcus aureus
Method: as §4, §2

E. faecium ATCC 700221 = experiment: MIC determination (microbroth dilution); assay type: cell-based; details: Enterococcus faecium, ATCC700221
Method: as §4, §2

[6] = system: Acinetobacter baumannii ATCC 747; experiment: MIC determination (microbroth dilution); assay type: cell-based; details: Acinetobacter baumannii, ATCC747
Method: as §4, §2

[7] = system: Enterococcus faecium ATCC 35667; experiment: MIC determination (microbroth dilution); assay type: cell-based; details: ATCC35667
Method: as §4, §2

S. aureus Mu50 = experiment: MIC determination (microbroth dilution); assay type: cell-based; details: Staphylococcus aureus
Method: as §4, §2

E. faecalis ATCC 29212 = experiment: MIC determination (microbroth dilution); assay type: cell-based; details: Enterococcus faecalis, ATCC29212
Method: as §4, §2

Row | Compound | IC50 (THP-1 (ATCC TIB-202)) | IC50 (HepG2 (CLS 300198)) | IC50 (HuH7 (CLS 300156)) | IC50 (HEK293 (CLS 300192)) | IC50 (CLS-54 (CLS 300227)) | IC50 (MRC-5 (ATCC CCL-171)) | MIC90 [1] | MIC90 [2] | MIC90 [3] | MIC90 [4] | concentration inhibiting viability of cells in biofilms (maximal effect) [5] | MIC90 (S. aureus USA300) | MIC90 (S. aureus TCH1516) | MIC90 (E. faecium ATCC 700221) | MIC90 [6] | MIC90 [7] | MIC90 (S. aureus Mu50) | MIC90 (E. faecalis ATCC 29212)
1 | Oc1c(Br)cc(Br)cc1Oc1ccc(Br)cc1Br [2-bromo-PP, 4,6-dibromo-2-(2′,4′-dibromophenoxy)phenol] | 6.25 µM | 50 µM | > 100 µM | 12.5 µM | > 100 µM | > 100 µM | 1.56 µM and 0.78 µg/mL | 1.56 µM and 0.78 µg/mL | 0.78 µM and 0.39 µg/mL | 0.78 µM and 0.39 µg/mL | 100 µM | 0.78 µM and 0.39 µg/mL | 0.78 µM and 0.39 µg/mL | 0.78 µM and 0.39 µg/mL | 0.78 µM and 0.39 µg/mL | 0.78 µM and 0.39 µg/mL | 0.19 µM and 0.1 µg/mL | 0.78 µM and 0.39 µg/mL
2 | Oc1c(Br)cc(Br)c(Br)c1Oc1ccc(Br)cc1Br [3-bromo-PP, 3,4,6-tribromo-2-(2′,4′-dibromophenoxy)phenol] | 50 µM | 25 µM | > 100 µM | 3.12 µM | > 100 µM | 100 µM | 3.12 µM and 1.81 µg/mL | 3.12 µM and 1.81 µg/mL | 6.25 µM and 3.63 µg/mL | 3.12 µM and 1.81 µg/mL | 12.5 µM | 0.39 µM and 0.23 µg/mL | 0.78 µM and 0.45 µg/mL | 0.78 µM and 0.45 µg/mL | 3.12 µM and 1.81 µg/mL | 0.39 µM and 0.23 µg/mL | 0.1 µM and 0.06 µg/mL | 0.78 µM and 0.45 µg/mL

Source: paper PMC8217011, “Natural brominated phenoxyphenols kill persistent and biofilm-incorporated cells of MRSA and other pathogenic bacteria” (Applied Microbiology and Biotechnology, 2020)
